From PubChem BioAssay AID2060492 (Molecular Pharmacology Branch, DTP, NCI, 2025)

System: 695427-040-R-J1-PDC complex spheroids, viability percent T/C
Assay: Anticancer human tumor 695427-040-R-J1-PDC patient-derived colon adenocarcinoma cell line growth inhibition [GQUAD]
Conditions: for IC50: curve of first compound; for viability, T/C: stronger effect = lower value
Procedure, shortened: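 Tumor cells were grown as complex spheroids with HUVEC endothelial cells and mesenchymal stem cells as stroma. G-quadruplex stabilizers were combined with targeted agents over half-log dilutions from near the clinical Cmax, or from 10 microM.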

[1] = second compound 0.0316 µM, first compound 0.0316 µM
[2] = second compound 0.0316 µM, first compound 0.1 µM
[3] = second compound 0.0316 µM, first compound 0.316 µM
[4] = second compound 0.0316 µM, first compound 1 µM
[5] = second compound 0.0316 µM, first compound 3.16 µM
[6] = second compound 0.0316 µM, first compound 10 µM
[7] = second compound 0.1 µM, first compound 0.0316 µM
[8] = second compound 0.1 µM, first compound 0.1 µM
[9] = second compound 0.1 µM, first compound 0.316 µM
[10] = second compound 0.1 µM, first compound 1 µM
[11] = second compound 0.1 µM, first compound 3.16 µM
[12] = second compound 0.1 µM, first compound 10 µM
[13] = second compound 0.316 µM, first compound 0.0316 µM
[14] = second compound 0.316 µM, first compound 0.1 µM
[15] = second compound 0.316 µM, first compound 0.316 µM
[16] = second compound 0.316 µM, first compound 1 µM
[17] = second compound 0.316 µM, first compound 3.16 µM
[18] = second compound 0.316 µM, first compound 10 µM
[19] = second compound 1 µM, first compound 0.0316 µM
[20] = second compound 1 µM, first compound 0.1 µM
[21] = second compound 1 µM, first compound 0.316 µM
[22] = second compound 1 µM, first compound 1 µM
[23] = second compound 1 µM, first compound 3.16 µM
[24] = second compound 1 µM, first compound 10 µM
[25] = second compound 3.16 µM, first compound 0.0316 µM
[26] = second compound 3.16 µM, first compound 0.1 µM
[27] = second compound 3.16 µM, first compound 0.316 µM
[28] = second compound 3.16 µM, first compound 1 µM
[29] = second compound 3.16 µM, first compound 3.16 µM
[30] = second compound 3.16 µM, first compound 10 µM
[31] = second compound 10 µM, first compound 0.0316 µM
[32] = second compound 10 µM, first compound 0.1 µM
[33] = second compound 10 µM, first compound 0.316 µM
[34] = second compound 10 µM, first compound 1 µM
[35] = second compound 10 µM, first compound 3.16 µM
[36] = second compound 10 µM, first compound 10 µM
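Further: spheroids exposed to compounds for seven days before readout.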

SMILES: CC(C)(O)C1CCC(Nc2ccc3ncc(-c4cccc(C(F)(F)F)c4)n3n2)CC1 (stereo unspecified) + Cc1[nH]c2ccc(F)cc2c1-c1nc2c3cccnc3c3ncccc3c2[nH]1
- IC50 (second compound 0.0316 µM): > 10 µM
- IC50 (second compound 0.1 µM): > 10 µM
- IC50 (second compound 0.316 µM): > 10 µM
- IC50 (second compound 1 µM): > 10 µM
- IC50 (second compound 3.16 µM): > 10 µM
- IC50 (second compound 10 µM): > 10 µM
- viability, T/C [1]: 109%
- viability, T/C [2]: 99.1%
- viability, T/C [3]: 109%
- viability, T/C [4]: 95.6%
- viability, T/C [5]: 99.8%
- viability, T/C [6]: 82.5%
- viability, T/C [7]: 110%
- viability, T/C [8]: 100%
- viability, T/C [9]: 103%
- viability, T/C [10]: 100%
- viability, T/C [11]: 100%
- viability, T/C [12]: 81.9%
- viability, T/C [13]: 101%
- viability, T/C [14]: 102%
- viability, T/C [15]: 97.6%
- viability, T/C [16]: 93.2%
- viability, T/C [17]: 99.7%
- viability, T/C [18]: 80.1%
- viability, T/C [19]: 102%
- viability, T/C [20]: 89.4%
- viability, T/C [21]: 96.8%
- viability, T/C [22]: 87.6%
- viability, T/C [23]: 91.4%
- viability, T/C [24]: 78%
- viability, T/C [25]: 91.6%
- viability, T/C [26]: 86.9%
- viability, T/C [27]: 76.4%
- viability, T/C [28]: 89.5%
- viability, T/C [29]: 93.5%
- viability, T/C [30]: 62.5%
- viability, T/C [31]: 79%
- viability, T/C [32]: 68.6%
- viability, T/C [33]: 81.7%
- viability, T/C [34]: 80.5%
- viability, T/C [35]: 80%
- viability, T/C [36]: 67.3%

SMILES: Cc1[nH]c2ccccc2c1CCNCc1ccc(/C=C/C(=O)NO)cc1 + Cc1[nH]c2ccc(F)cc2c1-c1nc2c3cccnc3c3ncccc3c2[nH]1
- IC50 (second compound 0.0316 µM): > 0.316 µM
- IC50 (second compound 0.1 µM): > 0.316 µM
- IC50 (second compound 0.316 µM): > 0.316 µM
- IC50 (second compound 1 µM): > 0.316 µM
- IC50 (second compound 3.16 µM): > 0.316 µM
- IC50 (second compound 10 µM): > 0.316 µM
- viability, T/C (second compound 0.0316 µM, first compound 0.000999 µM): 109%
- viability, T/C (second compound 0.0316 µM, first compound 0.00316 µM): 90%
- viability, T/C (second compound 0.0316 µM, first compound 0.00999 µM): 101%
- viability, T/C [1]: 102%
- viability, T/C (second compound 0.0316 µM, first compound 0.0999 µM): 106%
- viability, T/C [3]: 94.5%
- viability, T/C (second compound 0.1 µM, first compound 0.000999 µM): 115%
- viability, T/C (second compound 0.1 µM, first compound 0.00316 µM): 94.5%
- viability, T/C (second compound 0.1 µM, first compound 0.00999 µM): 91.1%
- viability, T/C [7]: 93.4%
- viability, T/C (second compound 0.1 µM, first compound 0.0999 µM): 95.7%
- viability, T/C [9]: 88.6%
- viability, T/C (second compound 0.316 µM, first compound 0.000999 µM): 98.8%
- viability, T/C (second compound 0.316 µM, first compound 0.00316 µM): 84.8%
- viability, T/C (second compound 0.316 µM, first compound 0.00999 µM): 94.2%
- viability, T/C [13]: 104%
- viability, T/C (second compound 0.316 µM, first compound 0.0999 µM): 100%
- viability, T/C [15]: 86.7%
- viability, T/C (second compound 1 µM, first compound 0.000999 µM): 94.3%
- viability, T/C (second compound 1 µM, first compound 0.00316 µM): 88.6%
- viability, T/C (second compound 1 µM, first compound 0.00999 µM): 96.8%
- viability, T/C [19]: 93.5%
- viability, T/C (second compound 1 µM, first compound 0.0999 µM): 98.9%
- viability, T/C [21]: 90.8%
- viability, T/C (second compound 3.16 µM, first compound 0.000999 µM): 75.2%
- viability, T/C (second compound 3.16 µM, first compound 0.00316 µM): 78.3%
- viability, T/C (second compound 3.16 µM, first compound 0.00999 µM): 86%
- viability, T/C [25]: 74.5%
- viability, T/C (second compound 3.16 µM, first compound 0.0999 µM): 78%
- viability, T/C [27]: 67.3%
- viability, T/C (second compound 10 µM, first compound 0.000999 µM): 74.8%
- viability, T/C (second compound 10 µM, first compound 0.00316 µM): 77.6%
- viability, T/C (second compound 10 µM, first compound 0.00999 µM): 71.8%
- viability, T/C [31]: 75.9%
- viability, T/C (second compound 10 µM, first compound 0.0999 µM): 74.8%
- viability, T/C [33]: 63.4%

SMILES: CC(C)n1c(=O)n(C)c2cnc3cc(F)c(-c4ccc(OCCCN5CCCCC5)nc4)cc3c21 + Cc1cnc(CNC(=O)c2c(=O)c3ccc(N4CCCN(C)CC4)nc3n3c2sc2ccccc23)cn1
- IC50 (second compound 0.0316 µM): > 10 µM
- IC50 (second compound 0.1 µM): > 10 µM
- IC50 (second compound 0.316 µM): > 10 µM
- IC50 (second compound 1 µM): 7.26 µM
- IC50 (second compound 3.16 µM): 2.61 µM
- IC50 (second compound 10 µM): < 0.0316 µM
- viability, T/C [1]: 80.7%
- viability, T/C [2]: 80.8%
- viability, T/C [3]: 88%
- viability, T/C [4]: 80.9%
- viability, T/C [5]: 84.6%
- viability, T/C [6]: 56%
- viability, T/C [7]: 87.1%
- viability, T/C [8]: 76.8%
- viability, T/C [9]: 91.7%
- viability, T/C [10]: 66.3%
- viability, T/C [11]: 84.6%
- viability, T/C [12]: 51.5%
- viability, T/C [13]: 89%
- viability, T/C [14]: 49.6%
- viability, T/C [15]: 75.8%
- viability, T/C [16]: 71.6%
- viability, T/C [17]: 85.4%
- viability, T/C [18]: 56.3%
- viability, T/C [19]: 90%
- viability, T/C [20]: 64.4%
- viability, T/C [21]: 69.9%
- viability, T/C [22]: 68.6%
- viability, T/C [23]: 73.5%
- viability, T/C [24]: 41.1%
- viability, T/C [25]: 51.5%
- viability, T/C [26]: 47.4%
- viability, T/C [27]: 57.8%
- viability, T/C [28]: 54.6%
- viability, T/C [29]: 49%
- viability, T/C [30]: 20.4%
- viability, T/C [31]: 43.5%
- viability, T/C [32]: 40.3%
- viability, T/C [33]: 45.8%
- viability, T/C [34]: 42.6%
- viability, T/C [35]: 43.1%
- viability, T/C [36]: 0.95%
